Data reported in the NIST ThermoML archive (doi:10.1021/acs.jced.7b00106).
Numbers after ± are expanded uncertainties.

Details: Hot wire method

FC(F)(F)/C=C/Cl [(E)-1-chloro-3,3,3-trifluoroprop-1-ene]
Details	thermal conductivity [W/m/K]
402.34 K, 675 kPa, Fluid (supercritical or subcritical phases)	0.01919 ± 0.0011
402.35 K, 18638 kPa, Liquid	0.06815 ± 0.00078
402.35 K, 18644 kPa, Liquid	0.06814 ± 0.00084
402.36 K, 4694 kPa, Liquid	0.05768 ± 0.00067
402.36 K, 4699 kPa, Liquid	0.05769 ± 0.00069
402.37 K, 9102 kPa, Liquid	0.06154 ± 0.0014
402.37 K, 9105 kPa, Liquid	0.06157 ± 0.0017
402.37 K, 33596 kPa, Liquid	0.07616 ± 0.0024
402.38 K, 1202 kPa, Fluid (supercritical or subcritical phases)	0.01949 ± 0.002
402.38 K, 1203 kPa, Fluid (supercritical or subcritical phases)	0.0195 ± 0.002
402.38 K, 1623 kPa, Fluid (supercritical or subcritical phases)	0.02057 ± 0.0047
402.38 K, 1624 kPa, Fluid (supercritical or subcritical phases)	0.02063 ± 0.0063
402.38 K, 33572 kPa, Liquid	0.0761 ± 0.0045
402.41 K, 3571 kPa, Liquid	0.05649 ± 0.00075
402.41 K, 3575 kPa, Liquid	0.05649 ± 0.00073
402.42 K, 1105 kPa, Fluid (supercritical or subcritical phases)	0.01939 ± 0.0019
402.43 K, 1105 kPa, Fluid (supercritical or subcritical phases)	0.01943 ± 0.0019
402.43 K, 7089 kPa, Liquid	0.05988 ± 0.00071
402.44 K, 2633 kPa, Liquid	0.05536 ± 0.00081
402.44 K, 2641 kPa, Liquid	0.05542 ± 0.00063
402.44 K, 7097 kPa, Liquid	0.05991 ± 0.0014
402.44 K, 15789 kPa, Liquid	0.06632 ± 0.0013
402.44 K, 15790 kPa, Liquid	0.06635 ± 0.001
402.44 K, 24987 kPa, Liquid	0.07171 ± 0.002
402.44 K, 24992 kPa, Liquid	0.07169 ± 0.0019
402.46 K, 1000 kPa, Fluid (supercritical or subcritical phases)	0.01927 ± 0.0022
402.47 K, 1001 kPa, Fluid (supercritical or subcritical phases)	0.01932 ± 0.0022
402.47 K, 1515 kPa, Fluid (supercritical or subcritical phases)	0.02021 ± 0.0025
402.47 K, 1844 kPa, Liquid	0.0544 ± 0.0013
402.47 K, 1854 kPa, Liquid	0.05447 ± 0.0009
402.48 K, 1515 kPa, Fluid (supercritical or subcritical phases)	0.02026 ± 0.004
402.5 K, 848 kPa, Fluid (supercritical or subcritical phases)	0.01923 ± 0.0013
402.5 K, 13367 kPa, Liquid	0.06472 ± 0.0013
402.5 K, 13371 kPa, Liquid	0.0647 ± 0.0013
402.51 K, 846 kPa, Fluid (supercritical or subcritical phases)	0.01926 ± 0.0021
402.52 K, 1406 kPa, Fluid (supercritical or subcritical phases)	0.01993 ± 0.003
402.52 K, 1407 kPa, Fluid (supercritical or subcritical phases)	0.01994 ± 0.0031
402.53 K, 21658 kPa, Liquid	0.06987 ± 0.00078
402.54 K, 21643 kPa, Liquid	0.06986 ± 0.00079
402.56 K, 28722 kPa, Liquid	0.07362 ± 0.0014
402.57 K, 5983 kPa, Liquid	0.05888 ± 0.0011
402.57 K, 5985 kPa, Liquid	0.05888 ± 0.00088
402.57 K, 11101 kPa, Liquid	0.06313 ± 0.00071
402.57 K, 28741 kPa, Liquid	0.07367 ± 0.0011
402.58 K, 1306 kPa, Fluid (supercritical or subcritical phases)	0.01976 ± 0.0043
402.58 K, 1307 kPa, Fluid (supercritical or subcritical phases)	0.01973 ± 0.004
402.58 K, 11088 kPa, Liquid	0.06313 ± 0.00077
402.6 K, 18623 kPa, Liquid	0.06809 ± 0.0017
402.61 K, 676 kPa, Fluid (supercritical or subcritical phases)	0.01925 ± 0.0019
402.61 K, 4688 kPa, Liquid	0.05758 ± 0.00095
402.61 K, 18624 kPa, Liquid	0.06809 ± 0.0017
402.61 K, 33585 kPa, Liquid	0.07607 ± 0.0019
402.62 K, 4693 kPa, Liquid	0.05763 ± 0.00095
402.62 K, 33568 kPa, Liquid	0.07592 ± 0.0013
402.63 K, 1203 kPa, Fluid (supercritical or subcritical phases)	0.01956 ± 0.0032
402.63 K, 9088 kPa, Liquid	0.06152 ± 0.0012
402.63 K, 9104 kPa, Liquid	0.06148 ± 0.0012
402.65 K, 1203 kPa, Fluid (supercritical or subcritical phases)	0.01959 ± 0.0033
402.66 K, 3574 kPa, Liquid	0.05645 ± 0.002
402.66 K, 3575 kPa, Liquid	0.05645 ± 0.002
402.69 K, 1104 kPa, Fluid (supercritical or subcritical phases)	0.01945 ± 0.0028
402.69 K, 1106 kPa, Fluid (supercritical or subcritical phases)	0.01948 ± 0.003
402.69 K, 7089 kPa, Liquid	0.05985 ± 0.00084
402.69 K, 15783 kPa, Liquid	0.06633 ± 0.00075
402.69 K, 15792 kPa, Liquid	0.06633 ± 0.00091
402.69 K, 24993 kPa, Liquid	0.07169 ± 0.00081
402.7 K, 2638 kPa, Liquid	0.0554 ± 0.00063
402.7 K, 7091 kPa, Liquid	0.0599 ± 0.001
402.7 K, 25001 kPa, Liquid	0.07172 ± 0.0011
402.71 K, 2639 kPa, Liquid	0.05542 ± 0.0015
402.74 K, 1850 kPa, Liquid	0.05446 ± 0.0018
402.75 K, 1000 kPa, Fluid (supercritical or subcritical phases)	0.01939 ± 0.0038
402.75 K, 1852 kPa, Liquid	0.05457 ± 0.0018
402.76 K, 13350 kPa, Liquid	0.06467 ± 0.00073
402.76 K, 13371 kPa, Liquid	0.06472 ± 0.00096
402.78 K, 848 kPa, Fluid (supercritical or subcritical phases)	0.01932 ± 0.0027
402.79 K, 846 kPa, Fluid (supercritical or subcritical phases)	0.01931 ± 0.0017
402.79 K, 21633 kPa, Liquid	0.06986 ± 0.00083
402.8 K, 21636 kPa, Liquid	0.06986 ± 0.00082
402.82 K, 28727 kPa, Liquid	0.07362 ± 0.00085
402.84 K, 5979 kPa, Liquid	0.05886 ± 0.00072
402.84 K, 5987 kPa, Liquid	0.05889 ± 0.00072
402.84 K, 11088 kPa, Liquid	0.0631 ± 0.0011
402.84 K, 28733 kPa, Liquid	0.07365 ± 0.0014
402.85 K, 11093 kPa, Liquid	0.06312 ± 0.001
402.86 K, 18624 kPa, Liquid	0.06805 ± 0.00077
402.87 K, 18643 kPa, Liquid	0.06812 ± 0.00084
402.89 K, 4691 kPa, Liquid	0.05763 ± 0.00076
402.89 K, 4699 kPa, Liquid	0.05767 ± 0.00076
402.9 K, 9108 kPa, Liquid	0.06161 ± 0.0022
402.9 K, 33571 kPa, Liquid	0.07603 ± 0.0014
402.91 K, 674 kPa, Fluid (supercritical or subcritical phases)	0.01931 ± 0.0018
402.91 K, 9096 kPa, Liquid	0.0616 ± 0.0011
402.91 K, 33586 kPa, Liquid	0.07604 ± 0.0011
402.93 K, 3567 kPa, Liquid	0.05645 ± 0.001
402.94 K, 3574 kPa, Liquid	0.05661 ± 0.001
402.96 K, 15767 kPa, Liquid	0.06628 ± 0.001
402.96 K, 24990 kPa, Liquid	0.07167 ± 0.0011
402.96 K, 25002 kPa, Liquid	0.07171 ± 0.0014
402.97 K, 7096 kPa, Liquid	0.05991 ± 0.0011
402.97 K, 15769 kPa, Liquid	0.0663 ± 0.001
402.98 K, 2633 kPa, Liquid	0.05541 ± 0.0024
402.98 K, 7087 kPa, Liquid	0.05989 ± 0.00068
402.99 K, 2643 kPa, Liquid	0.05551 ± 0.0022
403 K, 1856 kPa, Liquid	0.0546 ± 0.0017
403.01 K, 1850 kPa, Liquid	0.05458 ± 0.0017
403.03 K, 21637 kPa, Liquid	0.06984 ± 0.00089
403.04 K, 13347 kPa, Liquid	0.06471 ± 0.00073
403.04 K, 13368 kPa, Liquid	0.06474 ± 0.00085
403.07 K, 21655 kPa, Liquid	0.06986 ± 0.00085
403.09 K, 28719 kPa, Liquid	0.0736 ± 0.0011
403.1 K, 28719 kPa, Liquid	0.07336 ± 0.0012
403.11 K, 5980 kPa, Liquid	0.05886 ± 0.001
403.12 K, 5983 kPa, Liquid	0.05891 ± 0.00084
403.12 K, 11089 kPa, Liquid	0.06307 ± 0.00082
403.12 K, 11091 kPa, Liquid	0.06308 ± 0.00082
403.14 K, 18630 kPa, Liquid	0.06809 ± 0.00083
403.15 K, 18626 kPa, Liquid	0.06808 ± 0.0019
403.17 K, 4697 kPa, Liquid	0.05766 ± 0.00096
403.18 K, 4698 kPa, Liquid	0.05772 ± 0.00098
403.18 K, 9094 kPa, Liquid	0.06153 ± 0.00093
403.19 K, 9095 kPa, Liquid	0.06162 ± 0.00095
403.19 K, 33557 kPa, Liquid	0.076 ± 0.0011
403.2 K, 33576 kPa, Liquid	0.07601 ± 0.001
403.23 K, 3569 kPa, Liquid	0.0565 ± 0.0012
403.24 K, 3565 kPa, Liquid	0.05654 ± 0.0012
403.24 K, 15779 kPa, Liquid	0.06628 ± 0.00082
403.24 K, 25000 kPa, Liquid	0.07167 ± 0.0022
403.25 K, 15789 kPa, Liquid	0.06631 ± 0.00075
403.25 K, 24985 kPa, Liquid	0.07165 ± 0.0016
403.27 K, 2641 kPa, Liquid	0.05557 ± 0.002
403.27 K, 7090 kPa, Liquid	0.05988 ± 0.001
403.27 K, 7094 kPa, Liquid	0.05994 ± 0.00086
403.28 K, 2638 kPa, Liquid	0.05558 ± 0.0014
403.3 K, 1852 kPa, Liquid	0.05468 ± 0.0027
403.31 K, 1856 kPa, Liquid	0.05476 ± 0.0043
403.32 K, 13355 kPa, Liquid	0.06468 ± 0.0021
403.33 K, 13350 kPa, Liquid	0.06467 ± 0.0021
403.33 K, 21631 kPa, Liquid	0.0698 ± 0.0018
403.33 K, 21643 kPa, Liquid	0.06984 ± 0.0016
403.37 K, 28710 kPa, Liquid	0.07356 ± 0.0059
403.37 K, 28735 kPa, Liquid	0.0736 ± 0.0067
403.39 K, 11081 kPa, Liquid	0.06304 ± 0.0013
403.4 K, 5980 kPa, Liquid	0.05891 ± 0.0012
403.4 K, 11095 kPa, Liquid	0.06309 ± 0.0012
